The nature of assay [1]: Potency on glucagon-like peptide 1 release, dose-response in NCI-H716 cell line, half maximal inhibitory concentration (AID 1117344). The format is functional, cell-based.
The nature of assay [2]: glucagon-like peptide-1 release potency in STC-1, concentration-response, half-maximal inhibitory concentration in the STC-1 line (AID 1117345). The format is functional, cell-based.
The target in assay [3] is RNA-editing ligase 1, mitochondrial (Trypanosoma brucei brucei, UniProt P86926). As to the kind of experiment: inhibition of trypanosome RNA editing ligase – biochemical, fluorescence, Trypanosoma brucei, dose response (AID 1117295). The format is functional.
Sequence of RNA-editing ligase 1, mitochondrial (P86926 whole entry): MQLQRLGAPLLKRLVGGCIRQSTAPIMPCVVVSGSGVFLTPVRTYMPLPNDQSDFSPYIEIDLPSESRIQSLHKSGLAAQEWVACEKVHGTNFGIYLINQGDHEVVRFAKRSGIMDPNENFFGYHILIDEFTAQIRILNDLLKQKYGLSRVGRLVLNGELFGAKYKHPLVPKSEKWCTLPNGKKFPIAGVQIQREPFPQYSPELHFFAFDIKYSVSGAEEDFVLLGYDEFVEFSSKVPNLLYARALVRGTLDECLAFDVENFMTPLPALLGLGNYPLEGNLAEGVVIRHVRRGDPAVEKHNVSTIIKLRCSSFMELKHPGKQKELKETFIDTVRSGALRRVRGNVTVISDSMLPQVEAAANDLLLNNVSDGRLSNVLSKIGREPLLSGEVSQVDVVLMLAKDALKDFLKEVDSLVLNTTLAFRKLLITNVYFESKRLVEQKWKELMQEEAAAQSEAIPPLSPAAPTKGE
Assay [4] in a line: viability loss in A549 lung cells – cell-based, 24 h, CellTiter-Glo luminescence, cherry-picks, cytotoxicity control, dose response (AID 1053115). The format is functional. The following applies: A549, 24 h. Background: In ATP-based viability assays light output follows the ATP content of the culture.
Assay [5] is described as follows: M. tuberculosis growth inhibition, HTS (AID 449762). The format is functional.
Assay [6] concerns the target Mitogen-activated protein kinase 10 (Homo sapiens, UniProt P53779). Kind of assay: Dose response biochemical screening assay for inhibitors of c-Jun N-Terminal Kinase 3 (JNK3). [Related pubchem assays: 746 ].
For assay [7], the target named is T1, Oxysterols receptor LXR-beta (Homo sapiens, UniProt P55055).
T1 sequence (P55055 whole entry): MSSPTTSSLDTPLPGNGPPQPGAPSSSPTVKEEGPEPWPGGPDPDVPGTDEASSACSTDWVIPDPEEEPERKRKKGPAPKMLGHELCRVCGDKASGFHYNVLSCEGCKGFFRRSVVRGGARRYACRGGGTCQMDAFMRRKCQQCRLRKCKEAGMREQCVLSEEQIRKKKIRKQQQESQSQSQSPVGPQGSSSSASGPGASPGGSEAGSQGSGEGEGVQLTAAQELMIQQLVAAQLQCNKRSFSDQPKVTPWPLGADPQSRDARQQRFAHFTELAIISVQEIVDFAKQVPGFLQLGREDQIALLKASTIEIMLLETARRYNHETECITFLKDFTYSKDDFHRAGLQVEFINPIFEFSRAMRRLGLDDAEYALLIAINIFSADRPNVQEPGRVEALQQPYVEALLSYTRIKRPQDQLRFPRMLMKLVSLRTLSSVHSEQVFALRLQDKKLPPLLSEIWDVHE
Kind of assay: LXR agonists, Gal4 luciferase reporter, dose response, counter-screen for ssDAF-12 agonist project, cell-based, luminescence, HEK293, S. stercoralis campaign (AID 720737). The format is functional. The conditions noted are these: read-out: IC50 (the source's name). (In general: In a reporter assay the amount or activity of a reporter protein is the signal.)

Assay [8] can be described thus: Luminescence-based cell-based high throughput dose response assay to identify activators of the DAF-12 from the parasite S. stercoralis (ssDAF-12). The format is functional.
A short description of assay [9]: Dd2 parasite growth inhibition in erythrocytes – SYBR Green, dry powder samples, set 9, dose response (AID 1159568). The format is functional, cell-based.
Assay [10] can be described thus: BioA aminotransferase inhibition, coupled fluorescent readout – biochemical, coupled fluorescence displacement, 20-point, dry powder, dose response (AID 743357). The format is functional.

Calls of active or inactive are those of the source.

Sequence of Mitogen-activated protein kinase 10 (P53779 whole entry): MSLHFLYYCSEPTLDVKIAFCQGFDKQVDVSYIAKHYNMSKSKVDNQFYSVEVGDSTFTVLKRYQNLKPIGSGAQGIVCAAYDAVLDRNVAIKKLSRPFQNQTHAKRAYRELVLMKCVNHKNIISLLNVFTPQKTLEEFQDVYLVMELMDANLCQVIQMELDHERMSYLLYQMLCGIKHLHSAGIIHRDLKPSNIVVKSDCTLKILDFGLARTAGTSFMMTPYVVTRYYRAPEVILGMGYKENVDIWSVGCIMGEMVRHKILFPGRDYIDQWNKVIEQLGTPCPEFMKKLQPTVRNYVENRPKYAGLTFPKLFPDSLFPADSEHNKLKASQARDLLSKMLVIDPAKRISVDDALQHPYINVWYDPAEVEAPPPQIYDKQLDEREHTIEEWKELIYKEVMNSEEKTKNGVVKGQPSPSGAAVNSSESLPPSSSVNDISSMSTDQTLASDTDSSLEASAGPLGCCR

A word on the IC50: it is the concentration needed to halve the response being measured. Regarding `O=C(Nc1cccc2c(=O)cc(-c3nnn[nH]3)oc12)c1ccc(OCCCCc2ccccc2)cc1`, the IC50 in [1] and in [2] was > 40 µM (inactive) throughout.
In the case of `O=C(O)c1ccnc(C(=O)O)c1`, the IC50 in assay [3] is > 96.6 µM (inactive).
By AC50 is commonly meant the concentration giving half of the maximal activity seen. With `OC[C@@H]1Nc2ccc(-c3ccccc3)cc2[C@@H]2[C@H]1CCN2Cc1ccc(F)cc1`, the AC50 in [4] was > 60 µM (inactive).
For `C/C(CC(=O)Nc1ccc(C)c(Cl)c1)=N\NC(=O)Cc1cnc(N)s1`, the IC50 in [5] is > 100 µM (active).
Consider `Cc1cccc(/N=C/c2c(O)[nH]c3ccccc23)n1`, for which the concentration for half-maximal inhibition (IC50) in assay [6] is given as 41.7 µM (not active).
As for `Oc1[nH]ncc1/C=N/c1ccc(Oc2ccccc2)cc1`, in assay [7], the EC50 is > 67.5 µM (inactive). For the same compound, in [8], the IC50 was > 67.5 µM (inactive).
`O=C(Nc1ccccc1F)N1CCCCN2[C@H](CO)[C@@H](c3ccc(/C=C/c4ccccc4)cc3)[C@H]2C1`: the AC50 in [9] was 1.72 µM (active).
In the case of `N#Cc1ccc(N2CCN(C(=O)c3ccc4c(c3)OCO4)CC2)cc1`, the AC50 in [10] is 16.8 µM (active).

The values above are taken from ChEMBL document CHEMBL1201862, “PubChem BioAssay data set” (2004).
